In patent US20240368145A1, “METHODS FOR TREATING CANCER” (IMMUNIC AG, priority 2021, published 2024):

How the values were obtained:
Type in all cases: cell-based
[1] = system: prostate cancer cell line PC3; assay: Oncolead sulforhodamin B growth inhibition, PC3; settings: sulforhodamin B assay; 72 and 120 h treatment; read-out: GI50 range PC3
Description: (§1) Cell growth was assessed by measuring protein content using sulforhodamin B. Growth inhibition was calculated by (TCMD−T0)/TNCT72h−T0)*100% with TCMD is the tumor growth at 72 h with the respective compound concentration. To is the protein content of the cell line before treatment and TNCT72h is the tumor growth of the DMSO control.

[2] = system: prostate cancer cell line DU145; assay: Oncolead sulforhodamin B growth inhibition, DU145; settings: Homo sapiens, DU-145; sulforhodamin B assay; 72 and 120 h treatment; read-out: GI50 range DU145
Description: as §1

IFNγ = assay: Cytokine assay, human PBMC stimulated with PHA: IFNγ; settings: PHA-activated, 48 hours, read-out: IFNγ inhibition (IC50 range)
Description: Peripheral blood mononuclear cells (PBMC) from healthy human donors were purified using Accuspin™ System-Histopaque-1077 (Sigma) according to the protocol recommended by the manufacturer. Purified PBMC were then washed twice with phosphate-buffered saline (PBS) and resuspended in RPMI1640 culture medium supplemented with 10% dialyzed heat inactivated fetal calf serum, 1.5 mM L-glutamine, 100 U penicillin/mL and […] streptomycin/mL (all from PAN Biotech, Aidenbach, Germany). For stimulation, PBMC were seeded at 1×10^5 cells/well, activated with 2 gg/mL phytohaemagglutinin (PHA, Sigma) and incubated with the test compounds for 48 hours. IL-17A, IL-17F and INFγ were then determined in the culture supernatant using a Luminex BioPlex system, following the manufacturer's instructions (BioRad, Munich, Germany). To determine the IC50, compounds were titrated semilogarithmically.
Cytokines were determined in the aforementioned culture supernatant using the following methods: IL-17A was measured using the human homodimer IL-17A ELISA Ready Set Go Kit from cBioscience (Frankfurt, Germany); IL-17F using the human IL-17F ELI-Pair from Holzel Diagnostica GmbH (K51n, Germany); and IFNγ using the OptEIA human IFN-g ELISA from BD Bioscience (Heidelberg, Germany), all following the manufacturer's instructions.

[3] = system: prostate cancer cell line LNCAP; assay: Oncolead sulforhodamin B growth inhibition, LNCAP; settings: Homo sapiens, sulforhodamin B assay, 72 and 120 h treatment, read-out: GI50 range LNCAP
Description: as §1

[4] = system: full length AR (AR-FL) mRNA; assay: Androgen receptor RNA level expression (qRT-PCR) in 22Rv1: AR-FL; settings: 22Rv1, 1 μM, 48 h; for mrna remaining at 1 µM: Homo sapiens, normalized to untreated control (vehicle/DMSO)
Description: (§2) The prostate cancer cell line 22Rv1 was treated for 48 h with 1 μM Example compound 1, 1/1, 1/2, 2/1, 2/2, 2/3, 2/4, 2/5, 2/6, 2/7, 2/8, 2/9 and 2/10 and the reference compounds SR2211 and XY018 (Nat. Med. 2016; 22:488). RNA was extracted using the RNA isolation kit XS (Macherey-Nagel) and following the manufacture's manual. RNA quantity was measured with the Nanodrop before reverse transcription using Superscript II (Invitrogen #100004925). For the quantitative real-time PCR with SYBR-Green (Qiagen #204074), the following primers were used: AR forward-ACATCAAGGAACTCGATCGTATCATTGC and reverse-TTGGGCACTTGCACAGAGAT, AR-V7: forward-CCATCTTGTCGTCTTCGGAAATGTTATGAAGC and reverse-TTTGAATGAGGCAAGTCAGCCTTTCTT. The qRT-PCR proceeded as follows: denaturation for 5 min 95° C.; 40 cycles of “20 sec at 95° C. and 15 sec at 60° C.” and at the end of the last cycle, the melting temperature of the products was determined by gradually increasing it from 60° C. to 99° C. CT values from all samples were normalized to two different reference (housekeeping) genes using the mean CT value of the GAPDH and YWHAZ (reference genes). Next the values are normalized to the untreated control (vehicle/DMSO).

CAMKK2 mRNA = assay: Expression of AR target genes (qRT-PCR) in 22Rv1: CAMKK2; settings: 22Rv1, 1 μM, 48h; relative to vehicle control (DMSO)
Description: (§3) The prostate cancer cell line 22Rv1 was treated for 48h with 1 μM Example compound 1, 1/1, 2/1, 2/2, 2/3, 2/4, 2/5, 2/6, 2/7, 2/8, 2/9 and 2/10 and reference compounds SR2211 and XY018. RNA was extracted using the RNA isolation kit XS (Macherey-Nagel) and following the manufacture's manual. RNA quantity was measured with the Nanodrop before reverse transcription using Superscript II (Invitrogen #100004925). For the quantitative real-time PCR with SYBR-Green (Qiagen #204074), the following primers were used:
(§4) qRT-PCR was performed using SYBR-Green (Qiagen #204074) reagents in a PCR cycler (Gorbett Research) Rotor Gene RG3000 with the following program: denaturation for 5′ at 95° C.; 40 cycles of 20″ at 95° C. and 15″ at 60° C.″ and at the end of the last cycle, the melting temperature of the products was determined by gradually increasing from 60° C. to 99° C. CT values from all samples were normalized to reference (housekeeping) genes using the mean CT value of the GAPDH and YWHAZ (reference genes). Next the values are put relative to the untreated control (vehicle/DMSO).

AR-V7 mRNA = assay: Androgen receptor RNA level expression (qRT-PCR) in 22Rv1: AR-V7; settings: 22Rv1, 1 μM, 48 h; for mrna remaining at 1 µM: Homo sapiens, normalized to untreated control (vehicle/DMSO)
Description: as §2

KLK2 mRNA = assay: Expression of AR target genes (qRT-PCR) in 22Rv1: KLK2; settings: 22Rv1, 1 μM; for mrna remaining at 1 µM: Homo sapiens, 48h, relative to vehicle control (DMSO)
Description: as §3, §4

Row | GI50 [1] [nM] | GI50 [2] [nM] | IC50 (IFNγ) [nM] | GI50 [3] [nM] | full length AR (AR-FL) mRNA expression [4] | AR-V7 mRNA expression (AR-V7 mRNA) | Structure (SMILES) | mrna remaining at 1 µM [4] [%] | CAMKK2 mRNA expression (CAMKK2 mRNA) | mrna remaining at 1 µM (AR-V7 mRNA) [%] | mrna remaining at 1 µM (KLK2 mRNA) [%] | KLK2 mRNA level expression (KLK2 mRNA; 48 h)
1 | < 25 | < 25 | < 25 | 25 to 100 | strong reduction | strong reduction | COC(=O)c1c(-c2c(F)cccc2Cl)noc1-c1cnn(-c2cccc(Cl)c2)c1C(F)(F)F [Example 1, Methyl 3-(2-chloro-6-fluorophenyl)-5-(1-(3-chlorophenyl)-5-(trifluoromethyl)-1H-pyrazol-4-yl)isoxazole-4-carboxylate] | 44.2 | 0.884 | 37 | 59.8 | 
2 | < 25 | < 25 | < 25 | < 25 | strong reduction | strong reduction | Fc1cccc(Cl)c1-c1noc(-c2cnn(-c3cccc(Cl)c3)c2C(F)(F)F)c1-c1nccs1 [Example 1/1] | 43.6 | 0.883 | 39.5 | 74.2 | 
3 | < 25 | < 25 | < 25 | 100 to 5000 | strong reduction | strong reduction | CC(C)(O)CCn1ncc(-c2onc(-c3c(F)cccc3Cl)c2-c2ncccn2)c1C(F)(F)F [2/8] | 44.9 | 1.149 | 34.8 | 60.8 | strong inhibition
